Laboratory results taken from ChEMBL document CHEMBL1275409, “Antimicrobial-resistant pathogens in intensive care units in Canada: results of the Canadian National Intensive Care Unit (CAN-ICU) study, 2005-2006” (2008).

Assays:
Format in all cases: functional
[1] = test system: Staphylococcus epidermidis; assay: Antimicrobial activity against methicillin-susceptible Staphylococcus epidermidis isolated from ICU patient wound assessed as resistant isolates by broth microdilution method in presence of beta-lactamase inhibitor Tazobactam
[2] = test system: Enterobacter cloacae; assay: Antimicrobial activity against carbapenem-resistant Enterobacter cloacae isolated from ICU patient wound assessed as resistant isolates by broth microdilution method in presence of beta-lactamase inhibitor Tazobactam
[3] = test system: Staphylococcus epidermidis; assay: Antimicrobial activity against methicillin-resistant Staphylococcus epidermidis isolated from ICU patient wound assessed as resistant isolates by broth microdilution method in presence of beta-lactamase inhibitor Tazobactam
[4] = test system: Staphylococcus epidermidis; assay: Antimicrobial activity against methicillin-susceptible Staphylococcus epidermidis assessed as resistant isolates by broth microdilution method in presence of beta-lactamase inhibitor Tazobactam
[5] = test system: Staphylococcus aureus; assay: Antimicrobial activity against methicillin-resistant Staphylococcus aureus isolated from ICU patient wound assessed as resistant isolates by broth microdilution method in presence of beta-lactamase inhibitor Tazobactam
[6] = test system: Escherichia coli; assay: Antimicrobial activity against CTX-M ESBL producing Escherichia coli isolated from ICU patient wound assessed as resistant isolates by broth microdilution method in presence of beta-lactamase inhibitor Tazobactam
[7] = test system: Escherichia coli; assay: Antimicrobial activity against CTX-M ESBL producing Escherichia coli isolated from ICU patient blood assessed as resistant isolates by broth microdilution method in presence of beta-lactamase inhibitor Tazobactam
[8] = test system: Staphylococcus aureus; assay: Antimicrobial activity against methicillin-susceptible Staphylococcus aureus isolated from ICU patient respiratory tract assessed as resistant isolates by broth microdilution method in presence of beta-lactamase inhibitor Tazobactam
[9] = test system: Haemophilus influenzae; assay: Antimicrobial activity against Haemophilus influenzae isolated from ICU patient wound assessed as resistant isolates by broth microdilution method in presence of beta-lactamase inhibitor Tazobactam
[10] = test system: Escherichia coli; assay: Antimicrobial activity against CTX-M ESBL producing Escherichia coli isolated from ICU patient respiratory tract assessed as resistant isolates by broth microdilution method in presence of beta-lactamase inhibitor Tazobactam
[11] = test system: Staphylococcus aureus; assay: Antimicrobial activity against methicillin-susceptible Staphylococcus aureus isolated from ICU patient wound assessed as resistant isolates by broth microdilution method in presence of beta-lactamase inhibitor Tazobactam
[12] = test system: Enterobacter cloacae; assay: Antimicrobial activity against carbapenem-resistant Enterobacter cloacae isolated from ICU patient blood assessed as resistant isolates by broth microdilution method in presence of beta-lactamase inhibitor Tazobactam
[13] = test system: Staphylococcus aureus; assay: Antimicrobial activity against methicillin-resistant Staphylococcus aureus isolated from ICU patient urine assessed as resistant isolates by broth microdilution method in presence of beta-lactamase inhibitor Tazobactam
[14] = test system: Pseudomonas aeruginosa; assay: Antimicrobial activity against carbapenem-resistant Pseudomonas aeruginosa isolated from ICU patient urine assessed as resistant isolates by broth microdilution method in presence of beta-lactamase inhibitor Tazobactam
[15] = test system: Enterococcus sp.; assay: Antimicrobial activity against vancomycin-resistant Enterococcus sp. isolated from ICU patient urine assessed as resistant isolates by broth microdilution method in presence of beta-lactamase inhibitor Tazobactam
[16] = test system: Staphylococcus aureus; assay: Antimicrobial activity against methicillin-susceptible Staphylococcus aureus assessed as resistant isolates by broth microdilution method in presence of beta-lactamase inhibitor Tazobactam
[17] = test system: Haemophilus influenzae; assay: Antimicrobial activity against Haemophilus influenzae assessed as resistant isolates by broth microdilution method in presence of beta-lactamase inhibitor Tazobactam
[18] = test system: Klebsiella pneumoniae; assay: Antimicrobial activity against ESBL producing Klebsiella pneumoniae isolated from ICU patient blood assessed as resistant isolates by broth microdilution method in presence of beta-lactamase inhibitor Tazobactam
[19] = test system: Staphylococcus aureus; assay: Antimicrobial activity against methicillin-susceptible Staphylococcus aureus isolated from ICU patient blood assessed as resistant isolates by broth microdilution method in presence of beta-lactamase inhibitor Tazobactam
[20] = test system: Enterobacter cloacae; assay: Antimicrobial activity against carbapenem-resistant Enterobacter cloacae assessed as resistant isolates by broth microdilution method in presence of beta-lactamase inhibitor Tazobactam
[21] = test system: Pseudomonas aeruginosa; assay: Antimicrobial activity against carbapenem-resistant Pseudomonas aeruginosa isolated from ICU patient blood assessed as resistant isolates by broth microdilution method in presence of beta-lactamase inhibitor Tazobactam
[22] = test system: Enterococcus sp.; assay: Antimicrobial activity against vancomycin-resistant Enterococcus sp. isolated from ICU patient wound assessed as resistant isolates by broth microdilution method in presence of beta-lactamase inhibitor Tazobactam
[23] = test system: Staphylococcus aureus; assay: Antimicrobial activity against methicillin-resistant Staphylococcus aureus isolated from ICU patient respiratory tract assessed as resistant isolates by broth microdilution method in presence of beta-lactamase inhibitor Tazobactam
[24] = test system: Staphylococcus epidermidis; assay: Antimicrobial activity against methicillin-susceptible Staphylococcus epidermidis isolated from ICU patient urine assessed as resistant isolates by broth microdilution method in presence of beta-lactamase inhibitor Tazobactam
[25] = test system: Enterococcus sp.; assay: Antimicrobial activity against vancomycin-resistant Enterococcus sp. isolated from ICU patient respiratory tract assessed as resistant isolates by broth microdilution method in presence of beta-lactamase inhibitor Tazobactam
[26] = test system: Staphylococcus epidermidis; assay: Antimicrobial activity against methicillin-resistant Staphylococcus epidermidis isolated from ICU patient blood assessed as resistant isolates by broth microdilution method in presence of beta-lactamase inhibitor Tazobactam
[27] = test system: Enterobacter cloacae; assay: Antimicrobial activity against carbapenem-resistant Enterobacter cloacae isolated from ICU patient urine assessed as resistant isolates by broth microdilution method in presence of beta-lactamase inhibitor Tazobactam
[28] = test system: Staphylococcus aureus; assay: Antimicrobial activity against methicillin-resistant Staphylococcus aureus assessed as resistant isolates by broth microdilution method in presence of beta-lactamase inhibitor Tazobactam
[29] = test system: Klebsiella pneumoniae; assay: Antimicrobial activity against ESBL producing Klebsiella pneumoniae assessed as resistant isolates by broth microdilution method in presence of beta-lactamase inhibitor Tazobactam
[30] = test system: Pseudomonas aeruginosa; assay: Antimicrobial activity against carbapenem-resistant Pseudomonas aeruginosa assessed as resistant isolates by broth microdilution method in presence of beta-lactamase inhibitor Tazobactam
[31] = test system: Staphylococcus epidermidis; assay: Antimicrobial activity against methicillin-susceptible Staphylococcus epidermidis isolated from ICU patient respiratory tract assessed as resistant isolates by broth microdilution method in presence of beta-lactamase inhibitor Tazobactam
[32] = test system: Escherichia coli; assay: Antimicrobial activity against CTX-M ESBL producing Escherichia coli assessed as resistant isolates by broth microdilution method in presence of beta-lactamase inhibitor Tazobactam
[33] = test system: Staphylococcus aureus; assay: Antimicrobial activity against methicillin-susceptible Staphylococcus aureus isolated from ICU patient urine assessed as resistant isolates by broth microdilution method in presence of beta-lactamase inhibitor Tazobactam
[34] = test system: Enterobacter cloacae; assay: Antimicrobial activity against carbapenem-resistant Enterobacter cloacae isolated from ICU patient respiratory tract assessed as resistant isolates by broth microdilution method in presence of beta-lactamase inhibitor Tazobactam
[35] = test system: Staphylococcus epidermidis; assay: Antimicrobial activity against methicillin-resistant Staphylococcus epidermidis assessed as resistant isolates by broth microdilution method in presence of beta-lactamase inhibitor Tazobactam
[36] = test system: Klebsiella pneumoniae; assay: Antimicrobial activity against ESBL producing Klebsiella pneumoniae isolated from ICU patient urine assessed as resistant isolates by broth microdilution method in presence of beta-lactamase inhibitor Tazobactam
[37] = test system: Staphylococcus epidermidis; assay: Antimicrobial activity against methicillin-susceptible Staphylococcus epidermidis isolated from ICU patient blood assessed as resistant isolates by broth microdilution method in presence of beta-lactamase inhibitor Tazobactam
[38] = test system: Staphylococcus epidermidis; assay: Antimicrobial activity against methicillin-resistant Staphylococcus epidermidis isolated from ICU patient urine assessed as resistant isolates by broth microdilution method in presence of beta-lactamase inhibitor Tazobactam
[39] = test system: Haemophilus influenzae; assay: Antimicrobial activity against Haemophilus influenzae isolated from ICU patient blood assessed as resistant isolates by broth microdilution method in presence of beta-lactamase inhibitor Tazobactam
[40] = test system: Pseudomonas aeruginosa; assay: Antimicrobial activity against carbapenem-resistant Pseudomonas aeruginosa isolated from ICU patient respiratory tract assessed as resistant isolates by broth microdilution method in presence of beta-lactamase inhibitor Tazobactam
[41] = test system: Enterococcus sp.; assay: Antimicrobial activity against vancomycin-resistant Enterococcus sp. isolated from ICU patient respiratory tract assessed as resistant isolates by broth microdilution method
[42] = test system: Pseudomonas aeruginosa; assay: Antimicrobial activity against carbapenem-resistant Pseudomonas aeruginosa isolated from ICU patient wound assessed as resistant isolates by broth microdilution method in presence of beta-lactamase inhibitor Tazobactam
[43] = test system: Haemophilus influenzae; assay: Antimicrobial activity against Haemophilus influenzae isolated from ICU patient respiratory tract assessed as resistant isolates by broth microdilution method in presence of beta-lactamase inhibitor Tazobactam
[44] = test system: Staphylococcus aureus; assay: Antimicrobial activity against methicillin-resistant Staphylococcus aureus isolated from ICU patient blood assessed as resistant isolates by broth microdilution method in presence of beta-lactamase inhibitor Tazobactam
[45] = test system: Escherichia coli; assay: Antimicrobial activity against CTX-M ESBL producing Escherichia coli isolated from ICU patient urine assessed as resistant isolates by broth microdilution method in presence of beta-lactamase inhibitor Tazobactam
[46] = test system: Enterococcus sp.; assay: Antimicrobial activity against vancomycin-resistant Enterococcus sp. assessed as resistant isolates by broth microdilution method in presence of beta-lactamase inhibitor Tazobactam
[47] = test system: Klebsiella pneumoniae; assay: Antimicrobial activity against ESBL producing Klebsiella pneumoniae isolated from ICU patient respiratory tract assessed as resistant isolates by broth microdilution method in presence of beta-lactamase inhibitor Tazobactam
[48] = test system: Klebsiella pneumoniae; assay: Antimicrobial activity against ESBL producing Klebsiella pneumoniae isolated from ICU patient wound assessed as resistant isolates by broth microdilution method in presence of beta-lactamase inhibitor Tazobactam
[49] = test system: Enterococcus sp.; assay: Antimicrobial activity against vancomycin-resistant Enterococcus sp. isolated from ICU patient blood assessed as resistant isolates by broth microdilution method in presence of beta-lactamase inhibitor Tazobactam

Compound: CCN1CCN(C(=O)N[C@@H](C(=O)N[C@@H]2C(=O)N3[C@@H]2SC(C)(C)[C@@H]3C(=O)O)c2ccccc2)C(=O)C1=O [PIPERACILLIN]
- Activity [1]: 4.2%
- Activity [2]: 0%
- Activity [3]: 100%
- Activity [4]: 1.2%
- Activity [5]: 100%
- Activity [6]: 0%
- Activity [7]: 6.9%
- Activity [8]: 0%
- Activity [9]: 0%
- Activity [10]: 1.6%
- Activity [11]: 0%
- Activity [12]: 4.2%
- Activity [13]: 100%
- Activity [14]: 0%
- Activity [15]: 17.3%
- Activity [16]: 0%
- Activity [17]: 0.3%
- Activity [18]: 6.1%
- Activity [19]: 0%
- Activity [20]: 4.9%
- Activity [21]: 0%
- Activity [22]: 22.2%
- Activity [23]: 100%
- Activity [24]: 0%
- Activity [25]: 13.3%
- Activity [26]: 100%
- Activity [27]: 12.5%
- Activity [28]: 100%
- Activity [29]: 9.3%
- Activity [30]: 1.3%
- Activity [31]: 0%
- Activity [32]: 1.9%
- Activity [33]: 0%
- Activity [34]: 4.6%
- Activity [35]: 100%
- Activity [36]: 13.3%
- Activity [37]: 0%
- Activity [38]: 100%
- Activity [39]: 0%
- Activity [40]: 2.5%
- Activity [41]: 0%
- Activity [42]: 0%
- Activity [43]: 0.3%
- Activity [44]: 100%
- Activity [45]: 1.1%
- Activity [46]: 21.1%
- Activity [47]: 7.3%
- Activity [48]: 18.9%
- Activity [49]: 27%
